Laboratory results taken from ChEMBL document CHEMBL5154811, “Discovery of SPH5030, a Selective, Potent, and Irreversible Tyrosine Kinase Inhibitor for HER2-Amplified and HER2-Mutant Cancer Treatment” (J Med Chem, 2022).

Key:
[1] = target: T1, Receptor tyrosine-protein kinase erbB-2 (Homo sapiens, UniProt P04626); experiment: Inhibition of HER2 (unknown origin)
[2] = target: T2, Epidermal growth factor receptor (Homo sapiens, UniProt P00533); experiment: Inhibition of EGFR (unknown origin)
[3] = target: T1, Receptor tyrosine-protein kinase erbB-2; experiment: Inhibition of wild type human GST-tagged HER2 (676 to end residues) expressed in baculovirus infected Sf9 cells incubated for 30 mins in presence of ATP by HTRF analysis
[4] = target: T2, Epidermal growth factor receptor; experiment: Inhibition of wild type human N-terminal GST tagged EGFR (669 to 1210 residues) expressed in Sf21 insect cells incubated for 30 mins in presence of ATP by HTRF analysis
NCI-N87 = experiment: Antiproliferative activity against human NCI-N87 cells assessed as inhibition of cell growth incubated for 72 hrs by Celltiter-Glo assay; assay type: functional, cell-based; settings: NCI-N87, 72 h
BT-474 = experiment: Antiproliferative activity against human BT-474 cells assessed as inhibition of cell growth incubated for 72 hrs by Celltiter-Glo assay; assay type: functional, cell-based; settings: BT-474, 72 h
[5] = Clearance in ICR mouse at 3 mg/kg, iv measured upto 1440 mins by LC/MS/MS analysis; assay type: ADME, organism-based; settings: in vivo
[6] = Clearance in Sprague-Dawley rat at 3 mg/kg, iv measured upto 1440 mins by LC/MS/MS analysis; assay type: ADME, organism-based; settings: in vivo
[7] = Half life in ICR mouse at 3 mg/kg, iv measured upto 1440 mins by LC/MS/MS analysis; assay type: ADME, organism-based; settings: in vivo
[8] = Volume of distribution at steady state in ICR mouse at 3 mg/kg, iv measured upto 1440 mins by LC/MS/MS analysis; assay type: ADME, organism-based; settings: in vivo, read-out: Vdss
[9] = Cmax in ICR mouse at 10 mg/kg, po measured upto 1440 mins by LC/MS/MS analysis; assay type: ADME, organism-based; design: dose 10 mg/kg, time < 1440 min, route po; settings: in vivo
[10] = Tmax in ICR mouse at 10 mg/kg, po measured upto 1440 mins by LC/MS/MS analysis; assay type: ADME, organism-based; settings: in vivo
[11] = AUC (0 to t) in ICR mouse at 10 mg/kg, po measured upto 1440 mins by LC/MS/MS analysis; assay type: ADME, organism-based; design: time < 1440 min, dose 10 mg/kg, route po; settings: in vivo
[12] = Half life in ICR mouse at 10 mg/kg, po measured upto 1440 mins by LC/MS/MS analysis; assay type: ADME, organism-based; settings: in vivo
[13] = Oral bioavailability in ICR mouse at 10 mg/kg measured upto 1440 mins by LC/MS/MS analysis; assay type: ADME, organism-based; settings: in vivo
[14] = Half life in Sprague-Dawley rat at 3 mg/kg, iv measured upto 1440 mins by LC/MS/MS analysis; assay type: ADME, organism-based; settings: in vivo
[15] = Volume of distribution at steady state in Sprague-Dawley rat at 3 mg/kg, iv measured upto 1440 mins by LC/MS/MS analysis; assay type: ADME, organism-based; settings: in vivo, read-out: Vdss
[16] = Cmax in Sprague-Dawley rat at 10 mg/kg, po measured upto 1440 mins by LC/MS/MS analysis; assay type: ADME, organism-based; design: time < 1440 min, dose 10 mg/kg, route po; settings: in vivo
[17] = Tmax in Sprague-Dawley rat at 10 mg/kg, po measured upto 1440 mins by LC/MS/MS analysis; assay type: ADME, organism-based; settings: in vivo
[18] = AUC (0 to t) in Sprague-Dawley rat at 10 mg/kg, po measured upto 1440 mins by LC/MS/MS analysis; assay type: ADME, organism-based; design: dose 10 mg/kg, time < 1440 min, route po; settings: in vivo
[19] = Half life in Sprague-Dawley rat at 10 mg/kg, po measured upto 1440 mins by LC/MS/MS analysis; assay type: ADME, organism-based; settings: in vivo
[20] = Oral bioavailability in Sprague-Dawley rat at 10 mg/kg measured upto 1440 mins by LC/MS/MS analysis; assay type: ADME, organism-based; settings: in vivo
[21] = Metabolic stability in human liver microsomes assessed as half life at 1 uM preincubated for 5 mins followed by NADPH addition by LC-MS/MS analysis; assay type: ADME, Microsome
[22] = Metabolic stability in human liver microsomes assessed as intrinsic clearance at 1 uM preincubated for 5 mins followed by NADPH addition by LC-MS/MS analysis; assay type: ADME, Microsome; settings: read-out: CLH

T2 sequence (P00533 whole entry): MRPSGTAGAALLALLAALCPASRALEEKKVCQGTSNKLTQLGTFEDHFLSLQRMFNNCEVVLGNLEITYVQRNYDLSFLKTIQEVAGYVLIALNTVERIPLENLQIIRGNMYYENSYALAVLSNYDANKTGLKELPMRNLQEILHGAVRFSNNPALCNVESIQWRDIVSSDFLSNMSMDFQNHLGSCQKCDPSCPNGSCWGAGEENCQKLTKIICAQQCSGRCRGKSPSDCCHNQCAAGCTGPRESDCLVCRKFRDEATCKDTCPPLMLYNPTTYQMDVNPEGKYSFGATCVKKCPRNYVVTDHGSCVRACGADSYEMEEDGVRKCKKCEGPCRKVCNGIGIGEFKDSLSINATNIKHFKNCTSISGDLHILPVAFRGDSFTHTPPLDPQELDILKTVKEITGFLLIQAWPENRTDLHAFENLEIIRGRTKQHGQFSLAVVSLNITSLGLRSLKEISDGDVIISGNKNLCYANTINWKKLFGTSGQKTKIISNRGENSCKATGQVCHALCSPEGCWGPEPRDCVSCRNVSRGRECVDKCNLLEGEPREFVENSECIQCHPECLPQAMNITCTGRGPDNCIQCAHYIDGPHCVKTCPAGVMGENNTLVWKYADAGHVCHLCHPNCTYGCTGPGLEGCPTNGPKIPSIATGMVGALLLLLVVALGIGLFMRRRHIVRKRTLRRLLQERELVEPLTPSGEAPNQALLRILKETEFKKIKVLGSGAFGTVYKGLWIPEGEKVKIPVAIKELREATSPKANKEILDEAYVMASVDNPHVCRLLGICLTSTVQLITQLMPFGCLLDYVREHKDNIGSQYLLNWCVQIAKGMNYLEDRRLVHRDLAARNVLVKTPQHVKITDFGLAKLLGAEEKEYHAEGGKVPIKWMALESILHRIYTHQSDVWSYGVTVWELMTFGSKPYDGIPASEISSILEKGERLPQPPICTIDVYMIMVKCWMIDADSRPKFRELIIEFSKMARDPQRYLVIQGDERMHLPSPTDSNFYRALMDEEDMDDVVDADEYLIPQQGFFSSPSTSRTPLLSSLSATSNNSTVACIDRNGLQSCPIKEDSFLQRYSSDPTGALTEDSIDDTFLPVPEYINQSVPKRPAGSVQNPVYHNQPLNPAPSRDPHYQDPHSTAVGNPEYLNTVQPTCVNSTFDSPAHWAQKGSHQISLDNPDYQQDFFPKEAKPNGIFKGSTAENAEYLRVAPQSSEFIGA
T1 sequence (P04626 whole entry): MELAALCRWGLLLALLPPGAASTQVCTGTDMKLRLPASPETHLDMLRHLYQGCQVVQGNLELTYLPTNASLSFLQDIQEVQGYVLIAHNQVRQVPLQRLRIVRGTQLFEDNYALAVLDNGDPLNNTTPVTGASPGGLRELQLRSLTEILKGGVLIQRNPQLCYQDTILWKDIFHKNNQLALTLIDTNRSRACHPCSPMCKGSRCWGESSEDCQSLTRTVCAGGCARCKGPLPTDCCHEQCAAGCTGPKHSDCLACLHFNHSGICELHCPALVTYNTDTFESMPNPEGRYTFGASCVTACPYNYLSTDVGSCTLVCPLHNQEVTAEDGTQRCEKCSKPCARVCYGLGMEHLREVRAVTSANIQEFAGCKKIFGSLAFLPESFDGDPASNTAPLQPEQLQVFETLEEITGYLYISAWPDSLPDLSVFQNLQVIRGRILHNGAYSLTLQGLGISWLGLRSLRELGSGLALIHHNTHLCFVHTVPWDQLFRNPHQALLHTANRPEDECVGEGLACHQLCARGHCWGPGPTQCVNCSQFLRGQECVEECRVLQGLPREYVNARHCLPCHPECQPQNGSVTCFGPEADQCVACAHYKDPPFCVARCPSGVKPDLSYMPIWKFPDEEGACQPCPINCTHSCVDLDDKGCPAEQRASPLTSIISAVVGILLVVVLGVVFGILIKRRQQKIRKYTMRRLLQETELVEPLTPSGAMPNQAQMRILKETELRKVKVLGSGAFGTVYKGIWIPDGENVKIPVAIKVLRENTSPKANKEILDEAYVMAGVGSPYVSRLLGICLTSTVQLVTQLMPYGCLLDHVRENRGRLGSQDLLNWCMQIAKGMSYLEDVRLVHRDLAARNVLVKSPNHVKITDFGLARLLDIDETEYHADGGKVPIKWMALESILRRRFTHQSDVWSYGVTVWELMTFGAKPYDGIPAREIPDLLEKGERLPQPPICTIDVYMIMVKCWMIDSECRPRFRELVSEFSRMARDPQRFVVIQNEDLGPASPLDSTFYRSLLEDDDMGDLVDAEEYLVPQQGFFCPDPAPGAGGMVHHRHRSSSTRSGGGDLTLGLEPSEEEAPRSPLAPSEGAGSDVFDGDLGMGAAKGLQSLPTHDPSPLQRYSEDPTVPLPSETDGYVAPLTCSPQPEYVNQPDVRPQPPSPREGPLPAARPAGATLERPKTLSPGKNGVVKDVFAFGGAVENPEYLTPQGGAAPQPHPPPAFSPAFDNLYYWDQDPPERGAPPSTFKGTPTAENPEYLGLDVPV

| SMILES | IC50 [3] | IC50 [4] | IC50 (NCI-N87) | IC50 (BT-474) | further results |
| --- | --- | --- | --- | --- | --- |
| Cc1cc(Nc2ncnc3ccc(NC4=NC(C)(C)CO4)cc23)ccc1Oc1ccn2ncnc2c1 [TUCATINIB] |  |  |  |  | IC50 [1]: 6.9 nM; IC50 [2]: 449 nM |
| Cc1cc(Nc2ncnc3cc(O)c(NC(=O)/C=C/[C@H]4CCCN4C)cc23)ccc1Oc1ccn2ncnc2c1 | 1.43 nM | 2.8 nM | 2.65 nM | 2.4 nM |  |
| Cc1cc(Nc2ncnc3ccc(NC(=O)/C=C/CN(C)C)cc23)ccc1Oc1cc2nncn2cn1 | 2.85 nM | 2.13 nM | 11.7 nM | 8.05 nM |  |
| CCOc1cc2ncnc(Nc3ccc(Oc4cc5nncn5cn4)c(C)c3)c2cc1NC(=O)/C(F)=C\[C@@H]1CCCN1C | 3.68 nM | 25.9 nM | 0.56 nM | 1.75 nM | clearance [5]: 90 mL/min/kg; clearance [6]: 80.8 mL/min/kg; half-life [7]: 69.6 min; Vd [8]: 4.49 L/kg; Cmax [9]: 290 ng/mL; Tmax [10]: 0.42 h; AUC(0-t) at 24 h [11]: 630 ng·h/mL; half-life [12]: 52.2 min; bioavailability [13]: 34.4%; half-life [14]: 397 min; Vd [15]: 23.6 L/kg; Cmax [16]: 30 ng/mL; Tmax [17]: 2.67 h; AUC(0-t) at 24 h [18]: 170 ng·h/mL; half-life [19]: 248 min; bioavailability [20]: 13.7% |
| Cc1cc(Nc2ncnc3cc(O)c(NC(=O)/C=C/[C@H]4CCCN4C)cc23)ccc1Oc1cc2nccn2cn1 | 1.06 nM | 1.11 nM | 41.7 nM | 5.59 nM |  |
| COCC(=O)NC/C=C/c1ccc2ncnc(Nc3ccc(Oc4cc5nncn5cn4)c(C)c3)c2c1 | 2.55 nM | 110 nM | 80.7 nM | 50 nM |  |
| Cc1cc(Nc2ncnc3cc(O)c(NC(=O)/C=C/[C@H]4CCCN4C)cc23)ccc1Oc1ccn2cnnc2c1 | 6.31 nM | 22.7 nM | 32.9 nM | 26.8 nM |  |
| Cc1cc(Nc2ncnc3ccc(NC(=O)/C=C/[C@H]4CCCN4C)cc23)ccc1Oc1cc2nncn2cn1 | 1.4 nM | 1.19 nM | 2.17 nM | 3.06 nM |  |
| CCOc1cc2ncnc(Nc3ccc(Oc4cc5nncn5cn4)c(C)c3)c2cc1NC(=O)/C=C/[C@H]1CCCN1C | 1.67 nM | 1.36 nM | 1.12 nM | 2.13 nM | half-life at 1 µM [21]: 777 min; microsomal CLint at 1 µM [22]: 1.81 µL/min/mg; clearance [5]: 22 mL/min/kg; clearance [6]: 55.5 mL/min/kg; half-life [7]: 263 min; Vd [8]: 2.79 L/kg; Cmax [9]: 400 ng/mL; Tmax [10]: 1.67 h; AUC(0-t) at 24 h [11]: 1700 ng·h/mL; half-life [12]: 184 min; bioavailability [13]: 22.6%; half-life [14]: 125 min; Vd [15]: 10.6 L/kg; Cmax [16]: 280 ng/mL; Tmax [17]: 4 h; AUC(0-t) at 24 h [18]: 2170 ng·h/mL; half-life [19]: 259 min; bioavailability [20]: 47.5% |
| C=CC(=O)Nc1cc2c(Nc3ccc(Oc4cc5nncn5cn4)c(C)c3)ncnc2cc1OCC | 1.93 nM | 1.47 nM | 51.9 nM | 4.69 nM |  |
| C=C(F)C(=O)Nc1cc2c(Nc3ccc(Oc4cc5nncn5cn4)c(C)c3)ncnc2cc1OCC | 4.05 nM | 9.6 nM | 6.56 nM | 3.88 nM | half-life at 1 µM [21]: 34.6 min; microsomal CLint at 1 µM [22]: 40 µL/min/mg |
